# Laboratory results published in paper PMC9112332, “Structure-Based Design of α-Substituted Mercaptoacetamides as Inhibitors of the Virulence Factor LasB from Pseudomonas aeruginosa” (ACS Infectious Diseases, 2022).
# Where two headings read alike, the source gives them in different places.
# Experiments:
# MMP-2 = biological target: T1, MMP-2 (Homo sapiens, UniProt P08253); experiment: Human off-target inhibition assay, MMP-2; type: biochemical
# T1 sequence (P08253 110-660): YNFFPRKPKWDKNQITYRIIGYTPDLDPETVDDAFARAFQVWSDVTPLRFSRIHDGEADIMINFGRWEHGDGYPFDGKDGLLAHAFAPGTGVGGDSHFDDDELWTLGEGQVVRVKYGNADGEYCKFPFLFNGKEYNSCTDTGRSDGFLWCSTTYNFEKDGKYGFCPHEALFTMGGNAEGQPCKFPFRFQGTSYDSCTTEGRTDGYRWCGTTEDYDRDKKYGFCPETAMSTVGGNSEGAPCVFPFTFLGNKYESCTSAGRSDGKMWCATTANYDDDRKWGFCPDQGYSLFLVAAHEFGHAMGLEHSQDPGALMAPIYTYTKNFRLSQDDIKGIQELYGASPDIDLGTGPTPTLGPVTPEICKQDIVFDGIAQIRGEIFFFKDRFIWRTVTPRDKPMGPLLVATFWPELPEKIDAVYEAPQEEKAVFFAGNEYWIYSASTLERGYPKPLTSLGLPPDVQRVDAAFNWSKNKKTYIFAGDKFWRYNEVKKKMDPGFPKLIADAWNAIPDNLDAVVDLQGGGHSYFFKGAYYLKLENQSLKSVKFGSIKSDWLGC
# ADAM17 = ADAM17 (Homo sapiens, UniProt P78536); experiment: Human off-target inhibition assay, ADAM17 (TACE); type: biochemical
# ADAM17, sequence (P78536 215-824): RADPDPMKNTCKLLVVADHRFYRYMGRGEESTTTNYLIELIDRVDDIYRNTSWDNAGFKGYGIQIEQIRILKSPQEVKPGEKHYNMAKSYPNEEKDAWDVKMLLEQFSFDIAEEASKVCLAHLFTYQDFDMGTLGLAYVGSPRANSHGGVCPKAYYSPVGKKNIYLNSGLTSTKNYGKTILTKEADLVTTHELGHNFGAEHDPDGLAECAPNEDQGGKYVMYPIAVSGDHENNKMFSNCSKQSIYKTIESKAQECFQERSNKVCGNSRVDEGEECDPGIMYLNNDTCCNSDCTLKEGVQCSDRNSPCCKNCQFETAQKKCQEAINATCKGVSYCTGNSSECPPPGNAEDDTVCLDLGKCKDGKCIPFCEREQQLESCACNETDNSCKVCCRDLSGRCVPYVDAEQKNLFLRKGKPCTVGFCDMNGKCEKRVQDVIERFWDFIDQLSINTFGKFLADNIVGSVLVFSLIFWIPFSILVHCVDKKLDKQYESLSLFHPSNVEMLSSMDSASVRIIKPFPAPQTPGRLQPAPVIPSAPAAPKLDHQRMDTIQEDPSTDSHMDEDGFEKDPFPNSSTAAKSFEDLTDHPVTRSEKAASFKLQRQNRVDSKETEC
# MMP-14 = MMP-14 (Homo sapiens, UniProt P50281); experiment: Human off-target inhibition assay, MMP-14; type: biochemical
# MMP-3 = MMP-3 (Homo sapiens, UniProt P08254); experiment: Human off-target inhibition assay, MMP-3; type: biochemical
# MMP-3, sequence (P08254 100-477): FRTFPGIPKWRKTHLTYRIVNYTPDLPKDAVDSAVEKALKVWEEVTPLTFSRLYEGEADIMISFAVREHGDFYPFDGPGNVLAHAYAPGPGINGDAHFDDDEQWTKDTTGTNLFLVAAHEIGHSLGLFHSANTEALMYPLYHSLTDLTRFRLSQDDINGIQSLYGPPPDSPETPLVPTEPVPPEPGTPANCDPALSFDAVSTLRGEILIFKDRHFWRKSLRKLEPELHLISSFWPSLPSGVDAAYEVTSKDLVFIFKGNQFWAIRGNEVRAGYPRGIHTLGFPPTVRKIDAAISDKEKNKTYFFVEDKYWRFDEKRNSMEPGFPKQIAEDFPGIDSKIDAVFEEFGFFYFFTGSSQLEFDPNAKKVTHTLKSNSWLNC
# Cytotoxicity assay, A549 = type: cell-based; details: A549 cells; adenocarcinomic human alveolar basal epithelial cells
# LasB = LasB (Pseudomonas aeruginosa, UniProt Q02RJ6); experiment: LasB inhibition assay (FRET-based, in vitro)
# LasB, sequence (Q02RJ6 198-498): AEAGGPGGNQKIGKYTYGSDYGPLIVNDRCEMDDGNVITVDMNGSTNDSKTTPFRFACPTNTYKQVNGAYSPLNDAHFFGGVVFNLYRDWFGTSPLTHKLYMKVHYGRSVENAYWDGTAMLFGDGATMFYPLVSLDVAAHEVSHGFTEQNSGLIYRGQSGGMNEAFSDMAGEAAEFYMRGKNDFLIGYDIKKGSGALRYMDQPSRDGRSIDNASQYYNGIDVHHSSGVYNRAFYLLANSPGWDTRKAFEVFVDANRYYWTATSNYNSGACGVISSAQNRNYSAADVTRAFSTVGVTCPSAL
# Description: LasB Inhibition Assay. The purification of LasB from P. aeruginosa P14 supernatant as well
# as the subsequent performance of the FRET-based in vitro inhibition assay was performed as
# described previously.1 All samples were run in duplicate for each condition, and experiments
# were performed independently at least twice.
# MMP-8 = MMP-8 (Homo sapiens, UniProt P22894); experiment: Human off-target inhibition assay, MMP-8; type: biochemical
# MMP-8, sequence (P22894 101-467): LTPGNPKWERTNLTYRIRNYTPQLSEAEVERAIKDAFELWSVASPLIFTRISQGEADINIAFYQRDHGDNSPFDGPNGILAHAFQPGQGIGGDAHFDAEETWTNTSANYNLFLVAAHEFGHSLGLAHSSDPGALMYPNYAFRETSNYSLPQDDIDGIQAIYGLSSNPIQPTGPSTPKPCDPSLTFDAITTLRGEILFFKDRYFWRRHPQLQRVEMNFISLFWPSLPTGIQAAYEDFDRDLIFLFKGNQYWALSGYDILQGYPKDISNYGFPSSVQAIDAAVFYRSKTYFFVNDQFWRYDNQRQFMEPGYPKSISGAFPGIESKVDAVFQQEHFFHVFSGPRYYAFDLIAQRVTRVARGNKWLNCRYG
# [1] = Cytotoxicity assay, HEK293; type: cell-based; details: HEK293 cells; human embryonic kidney cells
# ColH-PD = ColH-PD (Hathewaya histolytica, UniProt Q46085); experiment: biochemical; design: species or system C. histolyticum
# ColH-PD, sequence (Q46085 331-721 limits assumed): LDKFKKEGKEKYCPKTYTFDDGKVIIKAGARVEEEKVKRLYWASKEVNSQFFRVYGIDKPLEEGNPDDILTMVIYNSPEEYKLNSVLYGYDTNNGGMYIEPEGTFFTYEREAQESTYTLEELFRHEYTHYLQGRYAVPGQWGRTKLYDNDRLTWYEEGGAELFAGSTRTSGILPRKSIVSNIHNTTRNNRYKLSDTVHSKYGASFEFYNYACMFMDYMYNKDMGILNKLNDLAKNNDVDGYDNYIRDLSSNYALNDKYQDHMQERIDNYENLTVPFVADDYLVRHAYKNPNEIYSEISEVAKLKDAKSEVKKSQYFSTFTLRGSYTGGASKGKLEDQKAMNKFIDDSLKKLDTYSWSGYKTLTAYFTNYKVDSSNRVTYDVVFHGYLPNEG
# [2] = system: A549 cells treated with ΔlasB PA14 supernatant; type: cell-based, human; details: 15% (v/v) ΔlasB PA14 supernatant, MTT
# MMP-1 = biological target: T2, MMP-1 (Homo sapiens, UniProt P03956); experiment: Human off-target inhibition assay, MMP-1; type: biochemical
# T2 sequence (P03956 100-469): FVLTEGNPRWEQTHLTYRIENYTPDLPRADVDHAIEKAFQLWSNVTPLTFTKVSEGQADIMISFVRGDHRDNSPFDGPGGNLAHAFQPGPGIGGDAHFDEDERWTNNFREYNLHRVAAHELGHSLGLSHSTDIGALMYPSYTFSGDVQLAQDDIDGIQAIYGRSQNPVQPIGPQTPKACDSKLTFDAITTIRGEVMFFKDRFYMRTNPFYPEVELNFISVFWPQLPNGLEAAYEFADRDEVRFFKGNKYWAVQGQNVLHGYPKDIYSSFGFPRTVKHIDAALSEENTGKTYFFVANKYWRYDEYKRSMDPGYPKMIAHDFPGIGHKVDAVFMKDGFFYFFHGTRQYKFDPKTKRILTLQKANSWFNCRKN
# P. aeruginosa PA14 = experiment: Antibacterial activity (MIC) assay; type: cell-based, Pseudomonas aeruginosa
# HDAC-3 = HDAC-3 (Homo sapiens, UniProt O15379); experiment: Human off-target inhibition assay, HDAC-3; type: biochemical
# HDAC-3, sequence (O15379 whole entry): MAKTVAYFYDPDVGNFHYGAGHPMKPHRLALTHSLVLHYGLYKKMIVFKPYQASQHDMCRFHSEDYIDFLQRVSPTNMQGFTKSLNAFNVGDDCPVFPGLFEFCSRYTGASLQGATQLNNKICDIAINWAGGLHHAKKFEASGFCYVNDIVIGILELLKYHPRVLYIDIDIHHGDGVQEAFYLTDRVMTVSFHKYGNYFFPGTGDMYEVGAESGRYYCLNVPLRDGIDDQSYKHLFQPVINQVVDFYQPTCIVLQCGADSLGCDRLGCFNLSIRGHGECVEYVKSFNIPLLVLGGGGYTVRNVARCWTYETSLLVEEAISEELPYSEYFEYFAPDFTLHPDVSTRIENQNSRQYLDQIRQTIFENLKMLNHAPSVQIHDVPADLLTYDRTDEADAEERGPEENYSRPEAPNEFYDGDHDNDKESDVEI
# HDAC-3, sequence (Q9Y618 395-489 partner limits assumed): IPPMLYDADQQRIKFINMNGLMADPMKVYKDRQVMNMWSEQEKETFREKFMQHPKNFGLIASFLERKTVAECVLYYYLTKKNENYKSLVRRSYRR
# Description: (§1) Table 3 Activities of Four LasB Inhibitors against the Selected MMPs (% of inhibition at 100 μM) and Further Human Off-Targets ^a | column: 3; 12; 13; 23
# [3] = Cytotoxicity assay, HepG2; type: cell-based; details: HepG2 cells; human hepatoma cell line
# MMP-7 = biological target: T3, MMP-7 (Homo sapiens, UniProt P09237); experiment: Human off-target inhibition assay, MMP-7; type: biochemical
# T3 sequence (P09237 95-267): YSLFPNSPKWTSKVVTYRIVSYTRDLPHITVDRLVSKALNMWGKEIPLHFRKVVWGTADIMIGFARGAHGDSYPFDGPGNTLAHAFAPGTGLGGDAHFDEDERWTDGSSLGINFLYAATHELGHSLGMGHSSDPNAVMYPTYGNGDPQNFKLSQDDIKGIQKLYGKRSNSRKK
# HDAC-8 = biological target: T4, HDAC-8 (Homo sapiens, UniProt Q9BY41); experiment: Human off-target inhibition assay, HDAC-8; type: biochemical
# T4 sequence (Q9BY41 1-377): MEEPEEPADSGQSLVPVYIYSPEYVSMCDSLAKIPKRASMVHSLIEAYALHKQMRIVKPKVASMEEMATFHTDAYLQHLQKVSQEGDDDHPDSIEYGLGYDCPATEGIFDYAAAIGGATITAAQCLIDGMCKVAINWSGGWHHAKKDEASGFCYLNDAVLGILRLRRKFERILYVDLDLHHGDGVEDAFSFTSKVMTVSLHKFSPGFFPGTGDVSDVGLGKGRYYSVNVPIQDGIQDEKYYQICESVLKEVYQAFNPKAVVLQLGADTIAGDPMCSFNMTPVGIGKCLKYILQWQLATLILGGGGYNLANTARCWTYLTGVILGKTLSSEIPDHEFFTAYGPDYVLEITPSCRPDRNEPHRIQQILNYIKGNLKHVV
# Description: as §1
# [4] = system: NHDF cells treated with wt PA14 supernatant; type: cell-based, human; details: 15% (v/v) wt PA14 supernatant; for effect on viability of NHDF cells treated with wt PA14 supernatant (in words): MTT
# [5] = system: A549 cells treated with wt PA14 supernatant; details: 15% (v/v) wt PA14 supernatant; for effect on viability of A549 cells treated with wt PA14 supernatant (in words): MTT
# zebrafish embryos = experiment: Zebrafish embryo toxicity (maximum tolerated concentration) assay; type: in vivo; details: for toxicity (larvae with toxicity signs): Table S2
# G. mellonella larvae = experiment: In vivo Galleria mellonella virulence assay; details: compound with wt PA14 supernatant, after 6 days
SMILES,inhibition at 100 µM (MMP-2) [%],inhibition at 100 µM (MMP-14) [%],inhibition at 100 µM (MMP-3) [%],IC50 (LasB) [nM],inhibition at 100 µM (MMP-8) [%],Ki (ColH-PD) [nM],inhibition at 100 µM (MMP-1) [%],IC50 (HDAC-3) [nM],inhibition at 100 µM (MMP-7) [%],IC50 (HDAC-8) [nM],further results
O=C(Nc1ccc(O)cc1)C(S)Cc1ccccc1 (centres unmarked) [Compound 13],< 10,< 10,< 10,600 ± 40,19 ± 4,100 ± 20,< 10,> 250000,< 10,> 250000,"IC50 (ADAM17): 2300 ± 1400 nM; IC50 (Cytotoxicity assay, A549): > 100000 nM; IC50 [1]: > 100000 nM; effect on A549 cells treated with ΔlasB PA14 supernatant (in words) [2]: no effect; MIC (P. aeruginosa PA14; Pseudomonas aeruginosa, P. aeruginosa PA14): > 100 µM; reduction of bacterial growth (P. aeruginosa PA14; at 100 μM): less than 10%; IC50 [3]: > 100000 nM; effect on viability of NHDF cells treated with wt PA14 supernatant (in words) [4]: Concentrations-dependent effects; effect on viability of A549 cells treated with wt PA14 supernatant (in words) [5]: Dose-dependent effect"
O=C(Nc1nccs1)C(S)Cc1ccccc1 (centres unmarked) [Compound 18],–,–,–,1600 ± 100,–,–,–,–,–,–,inhibition at 1 µM (ColH-PD; read-out: % inh. of ColH-PD @1µM): 34 ± 3%
O=C(Nc1nc2ccc(Cl)cc2s1)C(S)Cc1ccccc1 (centres unmarked) [Compound 25],–,–,–,2400 ± 200,–,–,–,–,–,–,–
COC(=O)c1ccsc1NC(=O)C(S)Cc1ccccc1 (centres unmarked) [Compound 19],–,–,–,8000 ± 1100,–,–,–,–,–,–,–
O=C(Nc1ccccn1)C(S)Cc1ccccc1 (centres unmarked) [Compound 21],–,–,–,3100 ± 200,–,–,–,–,–,–,–
"CC(C)C[C@H](NP(=O)(O)O[C@@H]1O[C@@H](C)[C@H](O)[C@@H](O)[C@H]1O)C(=O)N[C@@H](Cc1c[nH]c2ccccc12)C(=O)O [Pam, phosphoramidon, reference compound]",–,–,–,–,–,–,–,–,–,–,cell integrity and morphology of NHDF cells (bright-field imaging) [4]: cell integrity and morphology were maintained; cell integrity and morphology of A549 cells (bright-field imaging) [5]: cell integrity and morphology were maintained
"COc1ccc(NC(=O)C(S)Cc2ccccc2)cc1 (centres unmarked) [Compound 12, 2-Mercapto-N-(4-methoxyphenyl)-3-phenylpropanamide]",< 10,< 10,< 10,700 ± 30,12 ± 2,40 ± 10,< 10,> 100000,< 10,> 100000,"IC50 (ADAM17): 4100 ± 100 nM; Survival rate % (zebrafish embryos; 2 µM): 100%; toxicity (larvae with toxicity signs) (zebrafish embryos; 2 µM): No toxicity signs were observed; Survival rate % (zebrafish embryos; 30 µM): 0%; embryo observation (zebrafish embryos; 30 µM, 2 dpf): imp. dev.; embryo observation (zebrafish embryos; 30 µM, 3 dpf): all dead; toxicity (larvae with toxicity signs) (zebrafish embryos; 30 µM): 100%; Survival rate % (zebrafish embryos; 50 µM): 0%; embryo observation (zebrafish embryos; 50 µM, 3 dpf): all dead; toxicity (larvae with toxicity signs) (zebrafish embryos; 50 µM): 100%; Survival rate % (zebrafish embryos; 100 µM): 0%; embryo observation (zebrafish embryos; 100 µM, 2 dpf): all dead; toxicity (larvae with toxicity signs) (zebrafish embryos; 100 µM): 100%; maximum tolerated concentration (MTC) (zebrafish embryos; zebrafish embryos, until 120 hpf): ≤ 2 µM; survival of larvae (G. mellonella larvae): 70 ± 5%; effect on A549 cells treated with ΔlasB PA14 supernatant (in words) [2]: no effect; effect on viability of NHDF cells treated with wt PA14 supernatant (in words) [4]: Concentrations-dependent effects; effect on viability of A549 cells treated with wt PA14 supernatant (in words) [5]: Dose-dependent effect"
Cc1ccc(NC(=O)C(S)Cc2ccccc2)cc1 (centres unmarked) [Compound 3],< 10,< 10,< 10,–,< 10,50 ± 10,< 10,> 100000,< 10,> 100000,boost in potency compared to compound 4 (LasB; LasB IC50 ratio vs compound 4): 12 fold; ligand efficiency (LE) (LasB; calculated from LasB activity): 0.43; lipophilic ligand efficiency (LLE) (LasB; calculated from LasB activity): 2.37
O=C(Nc1ccccc1)C(S)Cc1ccccc1 (centres unmarked) [Compound 5],–,–,–,–,–,400 ± 40,–,–,–,–,"IC50 (LasB; read-out: IC50 against LasB, mean and SD of at least two independent experiments): 1200 ± 100 nM"
